Experimental data reported in ChEMBL document CHEMBL3804822 (Bioorg Med Chem, 2016).
The source made the active and inactive calls. The rule behind the calls is not given here.

Tests used:
[1] = biological target: T1, Estrogen receptor (Homo sapiens) (UniProt P03372); assay: Down regulation of ERalpha in human MCF7 cells at 10 uM after 6 hrs by Western blot analysis in absence of MG132
T1 sequence (whole entry): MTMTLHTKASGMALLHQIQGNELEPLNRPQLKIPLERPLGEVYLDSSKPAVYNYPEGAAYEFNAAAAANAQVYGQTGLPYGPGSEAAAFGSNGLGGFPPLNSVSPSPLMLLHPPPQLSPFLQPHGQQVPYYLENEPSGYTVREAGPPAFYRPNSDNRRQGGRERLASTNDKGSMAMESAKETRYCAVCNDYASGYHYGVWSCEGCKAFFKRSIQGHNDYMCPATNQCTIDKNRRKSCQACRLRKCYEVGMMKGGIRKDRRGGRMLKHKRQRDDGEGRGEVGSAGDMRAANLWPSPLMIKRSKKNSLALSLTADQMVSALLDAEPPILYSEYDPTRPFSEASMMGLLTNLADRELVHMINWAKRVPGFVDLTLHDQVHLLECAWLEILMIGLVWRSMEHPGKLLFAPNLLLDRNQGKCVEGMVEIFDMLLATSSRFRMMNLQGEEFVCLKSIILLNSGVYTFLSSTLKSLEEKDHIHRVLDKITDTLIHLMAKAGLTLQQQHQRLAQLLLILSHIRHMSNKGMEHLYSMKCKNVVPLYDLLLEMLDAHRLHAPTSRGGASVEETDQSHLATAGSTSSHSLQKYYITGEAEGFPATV

[2] = biological target: T1, Estrogen receptor (Homo sapiens); assay: Down regulation of ERalpha in human MCF7 cells after 6 hrs in presence of 10 uM proteasome inhibitor MG132 by Western blot analysis; format: cell-based
Estrogen receptor [3] = biological target: T2, Estrogen receptor (Homo sapiens, UniProt P03372); assay: Displacement of Fluormone ES2 from human recombinant full length untagged-ERalpha by fluorescence polarization competition binding assay
T2 sequence (P03372 whole entry): T1 sequence (whole entry)

Estrogen receptor [4] = biological target: T2, Estrogen receptor; assay: Antagonist activity at ERalpha (unknown origin) transfected in 17beta-estradiol induced-HEK293 cells assessed as inhibition of estradiol-mediated protein transcriptional activity after 16 to 20 hrs by Luciferase reporter gene assay

Activity [1] | Activity [2] | IC50 (Estrogen receptor [3]) | IC50 (Estrogen receptor [4]) | SMILES
Dose-dependent effect | inactive | 40 nM | 0.68 nM | CCCCCCCCCCNCCOc1ccc(C(=O)c2c(-c3ccc(O)cc3)sc3cc(O)ccc23)cc1
– | – | 1.8 nM | – | CCCCCCCCCCCCCCCCCCNCCOc1ccc(C(=O)c2c(-c3ccc(O)cc3)sc3cc(O)ccc23)cc1
– | – | 61 nM | – | CCCCCCNCCOc1ccc(C(=O)c2c(-c3ccc(O)cc3)sc3cc(O)ccc23)cc1
– | – | 49 nM | – | CCCCCCCCNCCOc1ccc(C(=O)c2c(-c3ccc(O)cc3)sc3cc(O)ccc23)cc1
– | – | 28 nM | – | CCCCCCCCCCCCCCNCCOc1ccc(C(=O)c2c(-c3ccc(O)cc3)sc3cc(O)ccc23)cc1
Dose-dependent effect | inactive | 5.9 nM | 0.09 nM | CCCCCCCCCCCCNCCOc1ccc(C(=O)c2c(-c3ccc(O)cc3)sc3cc(O)ccc23)cc1
– | – | 11 nM | – | CCCCCCCCCCCCCCCCNCCOc1ccc(C(=O)c2c(-c3ccc(O)cc3)sc3cc(O)ccc23)cc1
